In paper PMC8279416, “Structural Fine-Tuning of Desmuramylpeptide NOD2 Agonists Defines Their In Vivo Adjuvant Activity” (Journal of Medicinal Chemistry, 2021):

Tests used:
[1] = target: T1, NOD2 (Homo sapiens, UniProt Q9HC29); experiment: HEK-Blue NOD2 cell line reporter assay (NF-κB-inducible SEAP); format: cell-based; conditions: for EC50 / NOD2 activity at 2 μM (fold increase): HEK-Blue NOD2 cells; for NOD2 activity at 2 μM (fold increase): NF-κB transcriptional (SEAP) activity relative to 0.1% DMSO
T1 construct: host or cells: HEK-Blue NOD2 cells (HEK293-derived)

[2] = test system: PBMCs; experiment: RNA sequencing of PBMCs, differential expression analysis; format: cell-based, human; conditions: 2 μM, 18 h; for Number of genes with significantly modulated expression: FDR <0.05, fold change >1.5 or <0.667 vs 0.1% DMSO; for Number of differentially expressed genes: down-regulated / Number of differentially expressed genes: up-regulated: vs 0.1% DMSO
Method: Based on the potent in vitro NOD2 activation by 68 and the PBMC cytotoxicity activation by 75, we explored the effects of 68 and 75 in terms of induction at the transcriptional level. Next-generation sequencing of RNA isolated from PBMCs was carried out following their stimulation for 18 h with 68 or 75 (2 μM). After applying a low expression filter, the remaining 19046 genes from the desmuramylpeptide-treated samples were compared to the vehicle-treated controls (0.1% DMSO).
Peripheral blood mononuclear cells from three independent donors were seeded (2 × 10^6 cells/mL) in 24-well plates in 1 mL of growth medium and treated with the compounds (2 μM) or vehicle (0.1% DMSO) for 18 h at 37 °C in 5% CO2. The cells were washed with phosphate-buffered saline, resuspended in RNAlater RNA stabilization solution (Sigma-Aldrich, St. Louis, MO, U.S.A.), and stored at −80 °C. RNA extraction, library construction, and sequencing were conducted by Genewiz (Leipzig, Germany).
Briefly, total RNA was extracted using the RNeasy mini kit (Qiagen, Hilden, Germany) according to the manufacturer protocol. RNA samples were quantified using Qubit 4.0 Fluorometer (Life Technologies, Carlsbad, CA, U.S.A.), and RNA integrity was checked with RNA Kit on a 5600 Fragment Analyzer (Agilent Technologies, Palo Alto, CA, U.S.A.). All RNA samples were of high quality with an RNA quality number of ≥9.4. RNA sequencing libraries were prepared using NEBNext Ultra II RNA library prep kit for Illumina according to the manufacturer instructions (New England Biolabs, Ipswich, MA, U.S.A.). Libraries were loaded on the Illumina NovaSeq 6000 instrument, and clustering was performed directly on the NovaSeq before sequencing according to the manufacturer instructions. The samples were sequenced using a 2 × 150 paired end configuration. Image analysis and base calling were conducted by the NovaSeq Control Software. Raw sequence data (.bcl files) generated from the Illumina NovaSeq were converted into fastq files and demultiplexed using Illumina’s bcl2fastq 2.19 software. One mismatch was allowed for index sequence identification. After investigating the quality of the raw data, sequence reads were trimmed to remove possible adapter sequences and nucleotides with poor quality using Trimmomatic v.0.36. The trimmed reads were mapped to the Homo sapiens reference genome as available on ENSEMBL, using STAR aligner v.2.5.2b, thus generating BAM files. Unique gene hit counts were calculated using feature counts from the Subread package v.1.5.2. Only unique reads that fell within exon regions were counted. After extraction of gene hit counts, the gene hit counts table was used for downstream differential expression analysis.
Differential expression analysis was performed with iDEP.91.[128] First, a low expression filter was applied (0.5 counts per million in at least 1 library). The remaining gene counts were normalized by counts per million in the EdgeR package, with a pseudocount of 4. Differential gene expression analysis was performed with the DESeq2 method, using a false discovery rate <0.05 and a gene expression fold change >1.5 or <0.667 as the cutoff values. The list of differentially expressed genes was then used as input for gene annotation and pathway enrichment analysis with Metascape.[94]

[3] = 18 h, 7 or 8 concentrations 1 nM to 20 μM, mean ± SEM

T1 sequence (Q9HC29 whole entry): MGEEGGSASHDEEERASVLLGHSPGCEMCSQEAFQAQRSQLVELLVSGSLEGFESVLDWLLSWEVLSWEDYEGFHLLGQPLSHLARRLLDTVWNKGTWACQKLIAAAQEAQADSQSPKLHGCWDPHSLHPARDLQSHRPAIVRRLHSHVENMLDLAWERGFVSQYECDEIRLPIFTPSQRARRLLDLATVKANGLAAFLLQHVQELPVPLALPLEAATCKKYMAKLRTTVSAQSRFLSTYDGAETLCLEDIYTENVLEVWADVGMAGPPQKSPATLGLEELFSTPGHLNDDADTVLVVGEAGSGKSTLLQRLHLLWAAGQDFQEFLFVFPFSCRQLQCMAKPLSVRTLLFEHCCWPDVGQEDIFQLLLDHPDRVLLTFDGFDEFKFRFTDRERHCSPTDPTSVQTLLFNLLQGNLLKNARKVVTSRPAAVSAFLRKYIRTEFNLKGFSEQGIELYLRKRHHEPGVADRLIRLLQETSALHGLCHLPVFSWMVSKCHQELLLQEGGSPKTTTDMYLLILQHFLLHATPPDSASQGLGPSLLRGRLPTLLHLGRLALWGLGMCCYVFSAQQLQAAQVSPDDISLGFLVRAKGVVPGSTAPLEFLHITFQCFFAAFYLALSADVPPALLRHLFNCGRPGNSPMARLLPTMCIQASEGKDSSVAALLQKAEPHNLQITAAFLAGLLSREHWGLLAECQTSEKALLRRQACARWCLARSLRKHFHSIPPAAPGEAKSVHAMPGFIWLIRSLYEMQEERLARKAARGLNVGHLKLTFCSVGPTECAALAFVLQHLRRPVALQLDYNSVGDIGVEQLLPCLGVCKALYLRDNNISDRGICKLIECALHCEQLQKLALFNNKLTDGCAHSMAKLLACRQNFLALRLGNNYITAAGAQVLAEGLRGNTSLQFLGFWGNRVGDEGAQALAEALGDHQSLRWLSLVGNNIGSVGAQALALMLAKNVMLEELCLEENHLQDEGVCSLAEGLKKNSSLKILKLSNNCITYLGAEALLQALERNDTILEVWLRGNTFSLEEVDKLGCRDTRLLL

| SMILES | EC50 [1] [µM] | NOD2 activity at 2 μM (fold increase) ([1]; 18 h, mean ± SEM) | EC50 [1, 3] [µM] | Diminished activity by a factor, relative to 74 ([1]; ratio of EC50 versus compound 74) | Number of genes with significantly modulated expression [2] [genes] | Number of differentially expressed genes: down-regulated [2] [genes] | Number of differentially expressed genes: up-regulated [2] [genes] | Improvement in potency over 32 ([1]; ratio of EC50 versus compound 32) [fold] | Modulation of interferon-stimulated genes (ISGs) [2] |
| --- | --- | --- | --- | --- | --- | --- | --- | --- | --- |
| CCCCCCCCCCCCCCCCCC(=O)Oc1ccc(/C=C/C(=O)NCC(=O)N[C@H](C(=O)N[C@H](CCC(=O)OCC)C(=O)OCC)C(C)C)cc1OC [Compound 75, Diethyl ((E)-3-(3-Methoxy-4-(stearoyloxy)phenyl)acryloyl)glycyl-L-valyl-D-glutamate] | 2.83 | 2.37 ± 0.01 | 2.83 ± 0.206 | 90 | 270 | 143 | 127 |  |  |
| CCCCCCCCCCCCCCCCCC(=O)Oc1ccc(/C=C/C(=O)NCC(=O)N[C@H](C(=O)N[C@H](CCC(=O)OCC)C(=O)OCC)[C@@H](C)O)cc1OC [Compound 81, Diethyl ((E)-3-(3-Methoxy-4-(stearoyloxy)phenyl)acryloyl)glycyl-L-threonyl-D-glutamate] | 1.45 | 1.96 ± 0.01 | 1.45 ± 0.15 |  |  |  |  | 10 |  |
| COc1cc(/C=C/C(=O)NCC(=O)N[C@H](C(=O)N[C@H](CCC(=O)OC2CCCC2)C(=O)OC2CCCC2)C(C)C)ccc1O [Compound 68, Dicyclopentyl ((E)-3-(4-Hydroxy-3-methoxyphenyl)acryloyl)glycyl-L-valyl-D-glutamate] |  |  |  |  | 445 | 215 | 230 |  | up-regulation of several interferon-stimulated genes |
